Results from US11033550B2, “Medicament” (TAKEDA PHARMACEUTICAL COMPANY LIMITED, priority 2016, dated 2021).
pIC50: −log10 of the molar value.

Key:
[1] = Non Patent Literature 7; cited from earlier work
[2] = target: T1, interaction between human NHE1 and human CHP1 (Homo sapiens, UniProt P19634+Q99653); test: CHP1-NHE1 interaction, AlphaScreen protein interaction measurement system; format: binding
T1 construct: made in house; host or cells: NHE1: FreeStyle 293 cells (microsomal fraction); CHP1: wheat germ cell-free translation system
T1 sequence (P19634 whole entry): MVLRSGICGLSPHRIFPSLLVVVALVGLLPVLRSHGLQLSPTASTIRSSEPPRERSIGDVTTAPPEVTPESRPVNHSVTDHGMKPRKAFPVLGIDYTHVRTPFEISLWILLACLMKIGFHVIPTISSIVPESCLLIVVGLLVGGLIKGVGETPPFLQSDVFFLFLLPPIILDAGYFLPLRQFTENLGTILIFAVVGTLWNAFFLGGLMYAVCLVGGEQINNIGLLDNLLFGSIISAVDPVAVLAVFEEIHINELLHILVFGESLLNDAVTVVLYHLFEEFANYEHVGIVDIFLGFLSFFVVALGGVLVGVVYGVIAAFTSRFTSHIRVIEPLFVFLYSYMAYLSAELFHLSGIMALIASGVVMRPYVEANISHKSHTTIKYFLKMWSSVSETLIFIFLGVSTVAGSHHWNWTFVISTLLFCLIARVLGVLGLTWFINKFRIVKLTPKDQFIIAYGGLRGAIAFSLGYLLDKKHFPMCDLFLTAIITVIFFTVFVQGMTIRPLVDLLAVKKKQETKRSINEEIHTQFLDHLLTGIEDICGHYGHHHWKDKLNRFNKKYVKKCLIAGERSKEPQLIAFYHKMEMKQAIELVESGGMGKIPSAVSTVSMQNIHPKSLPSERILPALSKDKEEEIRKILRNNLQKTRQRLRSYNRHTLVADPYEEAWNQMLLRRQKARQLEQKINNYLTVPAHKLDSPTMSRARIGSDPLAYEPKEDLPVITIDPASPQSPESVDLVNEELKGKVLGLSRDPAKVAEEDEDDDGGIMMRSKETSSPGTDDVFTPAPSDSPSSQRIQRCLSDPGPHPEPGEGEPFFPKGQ
T1 sequence (Q99653 whole entry): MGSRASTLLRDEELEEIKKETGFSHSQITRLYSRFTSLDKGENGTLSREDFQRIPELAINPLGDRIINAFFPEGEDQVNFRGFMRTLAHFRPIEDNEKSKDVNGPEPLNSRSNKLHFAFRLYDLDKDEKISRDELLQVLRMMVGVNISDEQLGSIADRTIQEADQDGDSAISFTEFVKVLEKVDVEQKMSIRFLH
Description: The inhibitory activity of compound A′ on the interaction between human NHE1 and human CHP1 was evaluated in a protein interaction measurement system using an amplified luminescence proximity homogeneous assay (AlphaScreen™ (PerkinElmer)). A microsomal fraction of FLAG-tagged full-length human NHE1 (Accession No. NM 003047) was prepared by being expressed in human embryonic kidney cell-derived FreeStyle™ 293 cells. Also, biotinylated full-length human CHP1 (Accession No. NM 007236) was expressed in a wheat germ cell-free translation system and purified. The NHE1 microsomal fraction and CHP 1 were diluted with an assay buffer (25 mM Tris-HCl (pH 7.4), 137 mM NaCl, 2.7 mM KCl, 0.1% BSA, 1 mM DTT), and compound A′ was added thereto. Then, the mixture was added to an Alpha Plate-384 Shallow Well (Perkin Elmer) in an amount of 2 μL/well, and reacted at room temperature for 60 minutes. Acceptor Beads and Donor Beads accompanying an AlphaScreen FLAG(M2) Detection Kit (PerkinElmer) were added thereto each in an amount of 2 μL/well, and the mixture was reacted at room temperature for 60 minutes. Thereafter, the AlphaScreen signal intensity was measured using an EnSpire Multi-label reader (PerkinElmer). Different concentrations of compound A′ (concentration: 50.0 nM to 0.8 nM) were evaluated in this test system. • (2) Results

[3] = tested on: monocrotaline-induced pulmonary hypertensive rat model; test: Right ventricular pressure (RVP) by catheterization in monocrotaline-induced pulmonary hypertensive rat model; format: in vivo; details: for RVP: measured 28 days after MCT, mean
Description: (§1) Monocrotaline (MCT) was subcutaneously injected at 50 mg/kg (in 50% dimethyl sulfoxide solution) to male Sprague-Dawley rats having a body weight of 250 g ± 10% to prepare pulmonary hypertensive rat models. Compound A′ and the same amount of a vehicle were orally administered to a compound A′ administration group (dose: 1 mg/kg, 3 mg/kg, or 10 mg/kg) and a control group, respectively, every day over 14 days from the 14th day after the MCT administration. This experiment was carried out using these groups each involving 9 rats (12 rats were used only in a vehicle control group). • (2) Effect on Right Ventricular Pressure (RVP)
(§2) The right ventricular pressure (RVP) was measured by catheterization for the rats that survived at 28 days after MCT administration (negative control group (monocrotaline non-administered group), 9 rats; vehicle control group, 8 rats; compound A′ 1 mg/kg administration group, 9 rats; compound A′ 3 mg/kg administration group, 5 rats; compound A′ 10 mg/kg administration group, 9 rats; total 40 rats).

[4] = tested on: monocrotaline-induced pulmonary hypertensive rat models; test: Survival rate (Kaplan-Meier) in monocrotaline-induced pulmonary hypertensive rat models; format: in vivo; details: 1, 3 or 10 mg/kg orally once every day over 14 days from 14th day after MCT; result in words
Description: as §1, with “230” for “250”, “10 g” for “10%”, “respectively, once” for “respectively,”, “12 rats.” for “9 rats (12 rats were used only in a vehicle control group).”, “Survival Rate” for “Right Ventricular Pressure (RVP)”

[5] = tested on: monocrotaline-induced pulmonary hypertensive rat model; test: Pulmonary artery medial wall thickening (Elastica van Gieson staining) in monocrotaline-induced pulmonary hypertensive rat model; format: in vivo; details: for Thickness of pulmonary artery medial wall: 10 mg/kg orally, 28 days after MCT, mean
Description: as §1
(§3) Concerning the pulmonary hypertensive rat models that survived at 28 days after MCT administration (negative control group (monocrotaline non-administered group), 9 rats; vehicle control group, 8 rats; compound A′ 10 mg/kg administration group, 9 rats), tissue specimens of pulmonary tissue sections were prepared from 5 rats per group (total 15 rats) by Elastica van Gieson staining method to measure the thickening of the medial wall of the pulmonary artery.

[6] = target: T2, calcium-sensing receptor (CaSR) (Homo sapiens, UniProt P41180); details: Non Patent Literature 6; cited from earlier work
T2 sequence (P41180 20-1078): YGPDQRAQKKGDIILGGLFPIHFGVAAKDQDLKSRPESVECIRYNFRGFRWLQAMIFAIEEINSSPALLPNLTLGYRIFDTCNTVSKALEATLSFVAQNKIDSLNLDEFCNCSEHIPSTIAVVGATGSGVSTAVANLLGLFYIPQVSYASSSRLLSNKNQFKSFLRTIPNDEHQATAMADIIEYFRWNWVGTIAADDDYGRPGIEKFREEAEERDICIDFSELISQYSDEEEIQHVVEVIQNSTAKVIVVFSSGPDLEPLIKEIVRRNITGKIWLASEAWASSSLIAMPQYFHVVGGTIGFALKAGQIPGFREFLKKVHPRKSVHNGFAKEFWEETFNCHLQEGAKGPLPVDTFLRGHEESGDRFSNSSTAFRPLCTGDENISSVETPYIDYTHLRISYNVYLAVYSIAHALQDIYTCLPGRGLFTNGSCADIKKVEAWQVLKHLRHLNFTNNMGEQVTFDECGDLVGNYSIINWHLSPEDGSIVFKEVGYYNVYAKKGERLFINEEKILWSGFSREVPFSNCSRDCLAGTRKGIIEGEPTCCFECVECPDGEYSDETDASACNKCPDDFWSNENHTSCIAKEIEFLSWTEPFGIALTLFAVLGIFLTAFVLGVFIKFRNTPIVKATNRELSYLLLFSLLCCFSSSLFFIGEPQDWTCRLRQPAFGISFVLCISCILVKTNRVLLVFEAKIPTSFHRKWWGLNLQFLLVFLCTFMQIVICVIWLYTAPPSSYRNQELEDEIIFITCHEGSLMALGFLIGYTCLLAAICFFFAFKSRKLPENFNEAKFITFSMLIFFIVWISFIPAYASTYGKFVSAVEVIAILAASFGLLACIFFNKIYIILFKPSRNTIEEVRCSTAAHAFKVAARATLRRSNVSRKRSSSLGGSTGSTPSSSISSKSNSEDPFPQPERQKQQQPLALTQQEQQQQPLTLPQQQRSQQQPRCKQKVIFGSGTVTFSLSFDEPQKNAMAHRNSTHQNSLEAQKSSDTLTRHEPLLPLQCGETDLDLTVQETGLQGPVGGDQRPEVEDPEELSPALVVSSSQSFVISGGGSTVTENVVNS

[7] = tested on: monocrotaline-induced pulmonary hypertensive rat model; test: Right ventricular hypertrophy, RV/(LV+S), in monocrotaline-induced pulmonary hypertensive rat model; format: in vivo; details: for RV/(LV + S): 28 days after MCT, index for right cardiomegaly, mean
Description: as §1
The right ventricle weight (RV), left ventricle weight (LV), and interventricular septum weight (S) were measured for pulmonary hypertensive rat models that survived at 28 days after MCT administration (negative control group (monocrotaline non-administered group), 9 rats; vehicle control group, 8 rats; compound A′ 1 mg/kg administration group, 9 rats; compound A′ 3 mg/kg administration group, 5 rats; compound A′ 10 mg/kg administration group, 9 rats; total 40 rats)), and RV/(LV+S) was determined as an index for right cardiomegaly.

[8] = tested on: monocrotaline-induced pulmonary hypertensive rat model; test: Pulmonary artery occlusion index (Elastica van Gieson staining) in monocrotaline-induced pulmonary hypertensive rat model; format: in vivo; details: for Pulmonary artery occlusion: 10 mg/kg orally, 28 days after MCT, twice medial wall thickness divided by artery diameter, mean
Description: as §1
as §3, with “occlusion” for “the thickening of the medial wall”, “artery. A value obtained by dividing a value that is twice as much as the thickness of the pulmonary artery medial wall by the diameter of the pulmonary artery was used as an index of occlusion.” for “artery.”

[9] = tested on: monocrotaline-induced pulmonary hypertensive rat model; test: Right ventricular systolic pressure (RVSP) by catheterization in monocrotaline-induced pulmonary hypertensive rat model; format: in vivo; details: for RVSP: measured 28 days after MCT, mean
Description: as §1
as §2, with “ventricular systolic” for “ventricular”, “(RVSP)” for “(RVP)”, “((negative” for “(negative”, “rats)).” for “rats).”

[10] = tested on: monocrotaline (MCT)-induced pulmonary hypertensive rats; details: Non Patent Literatures 1 to 5; cited from earlier work
[11] = tested on: hypoxia-induced pulmonary hypertensive (HPH) mice; details: Non Patent Literatures 1 to 5; cited from earlier work
[12] = 1 mg/kg orally every day over 14 days from 14th day after MCT
[13] = 3 mg/kg orally every day over 14 days from 14th day after MCT
[14] = 10 mg/kg orally every day over 14 days from 14th day after MCT
[15] = Diameter of pulmonary artery (<50 μM)

Compound: C[C@@H](N[C@H]1CCCC[C@@H]1NC(=O)c1ccc(Cl)cc1)c1cccc2ccccc12 [Calhex 231]
- Effect on the action of an existing PAH drug (PDE 5 inhibitor/sildenafil) [1]: enhance the effect

Compound: CCc1ccc(C(CC)(CC)NC(=O)c2c(C)nn3c2N[C@@H](c2ccccc2)CC3(C)C)cc1 [Compound A′, (5R)-N-[1-Ethyl-1-(4-ethylphenyl)propyl]-2,7,7-trimethyl-5-phenyl-4,5,6,7-tetrahydropyrazolo[1,5-a]pyrimidine-3-carboxamide]
- pIC50 ([2]; AlphaScreen, FLAG-tagged human NHE1 microsomal fraction and biotinylated human CHP1, 50.0 nM to 0.8 nM tested, read-out: CHP1-NHE1 interaction activity (50% inhibitory concentration)): 8.33
- CHP1-NHE1 inhibitory activity, in words ([2]; summary of Table 6): remarkable CHP1-NHE1 inhibitory activity
- RVP [3, 12]: 26.4 mmHg
- RVP [3, 13]: 22.4 mmHg
- RVP [3, 14]: 17.8 mmHg
- Effect on right ventricular pressure, in words ([3]; at 28 days after MCT administration, summary of Table 1): remarkably improved
- Effect on survival rate (Kaplan-Meier survival curve, FIG. 1) [4]: remarkably improved the survival rate
- Thickness of pulmonary artery medial wall ([5]; Diameter of pulmonary artery (50 μM-100 μM)): 6.86
- Thickness of pulmonary artery medial wall [5, 15]: 4.28
- Effect on thickening of the pulmonary artery medial wall, in words ([5]; at 28 days after MCT administration, summary of Table 4): remarkably improved
- Activity at CaSR [6]: CaSR antagonist
- RV/(LV + S) [7, 12]: 0.333
- RV/(LV + S) [7, 13]: 0.307
- RV/(LV + S) [7, 14]: 0.282
- Effect on right ventricular hypertrophy, in words ([7]; at 28 days after MCT administration, summary of Table 3): remarkably improved
- Pulmonary artery occlusion [8, 15]: 0.20
- Pulmonary artery occlusion ([8]; Diameter of pulmonary artery): 0.19
- Effect on occlusion of the pulmonary artery, in words ([8]; at 28 days after MCT administration, summary of Table 5): remarkably improved
- RVSP [9, 12]: 48.3 mmHg
- RVSP [9, 13]: 39.1 mmHg
- RVSP [9, 14]: 28.0 mmHg
- Effect on right ventricular systolic pressure (RVSP), in words ([9]; at 28 days after MCT administration, summary of Table 2): remarkably improved

Compound: CC(C)(Cc1ccc2ccccc2c1)NC[C@@H](O)COc1cccc(Cl)c1C#N [NPS-2143]
- Reported effects on pulmonary hypertension pathology [10]: inhibit cardiac hypertrophy, a rise in right ventricular systolic pressure, myocardial tissue fibrosis, and pulmonary vascular remodeling
- Reported effects on pulmonary hypertension pathology [11]: inhibit cardiac hypertrophy, a rise in right ventricular systolic pressure, myocardial tissue fibrosis, and pulmonary vascular remodeling
- Effect on the action of an existing PAH drug (PDE 5 inhibitor/sildenafil) [1]: enhance the effect
